This is an account of results in article PMC6272155, “Plasmin Regulation through Allosteric, Sulfated, Small Molecules” (Molecules, 2015).

The target of the assay is T1, human Lys-plasmin (Homo sapiens, UniProt P00747).
T1 construct: purchased Haematologic Technologies (Essex Junction, VT, USA)
The experiment in a line: Direct inhibition of human Lys-plasmin, chromogenic substrate (Spectrozyme PL) hydrolysis assay. The assay is classed as biochemical. Particulars: for IC50: human plasmin 20 nM, 50 mM Tris-HCl pH 7.4, 150 mM NaCl, 37 °C, Spectrozyme PL; for inhibition at 400 µM: 400 μM inhibitor, n ≥ 2, read-out: plasmin inhibition in initial screening. How it is done: Important to emphasize here that the potency of NSGM-based inhibitors was evaluated by measuring their IC50's (X-axis), whereas the efficacy was assessed by measuring the overall change in residual plasmin activity (%) (ΔY = YM − Y0) (Y-axis).
Direct inhibition of human Lys-plasmin was measured using a chromogenic substrate hydrolysis assay on a microplate reader (FlexStation III, Molecular Devices, Sunnyvale, CA, USA), as reported earlier. Briefly, to each well of a 96-well microplate containing 85 µL of 50 mM Tris-HCl buffer, pH 7.4, containing 150 mM NaCl, 0.1% PEG8000, and 0.02% Tween80 at 37 °C was added 5 µL potential NSGM-based inhibitor (20–100 mM aqueous solution) (or vehicle alone) and 5 µL enzyme. The final concentration of the enzyme was 20 nM. After 5 min incubation, 5 µL of 1 mM Spectrozyme PL was rapidly added and the residual enzyme activity was measured from the initial rate of increase in A405. Relative residual enzyme activity (Y) as a function of the concentration of sulfated molecule was fitted using logistic equation 1 to obtain the potency (IC50), efficacy (ΔY) and Hill slope (HS) of inhibition. In this equation, YM and Y0 are the maximal and minimal values of Y: (1) Y = Y0+YM−Y0/1+10^(log[Inhibitor]0 − logIC50) ×HS […]
In this equation, Y is the ratio of residual plasmin activity in the presence of inhibitor to that in its absence (fractional residual activity). YM and Y0 are the maximum and minimum possible values of the fractional residual proteinase activity. The difference between these two values is used to evaluate the inhibitor’s efficacy to reduce the residual enzyme activity under the assay condition.
Direct inhibition of human plasmin by sulfated small molecules. Direct inhibition of plasmin was measured using a chromogenic substrate hydrolysis assay on a microplate reader (FlexStation III, Molecular Devices), as reported earlier. Briefly, to each well of a 96-well microplate containing […]
Tween80 at 37 °C was added 5 µL potential inhibitor (or vehicle alone) and 5 µL enzyme. The final concentration of the enzyme was 20 nM. After 5 min incubation, 5 µL of 1 mM Spectrozyme PL was rapidly added and the residual enzyme activity was measured from the initial rate of increase in A405.
Relative residual enzyme activity (Y, activity in the presence of inhibitor to that in its absence) as a function of the concentration of SPGG derivative was fitted using logistic Equation (1) to obtain the potency (IC50), efficacy (ΔY) and Hill slope (HS) of inhibition. In this equation, YM and Y0 are the maximal and minimal values of Y.

Where [1] appears, read: pH 7.4, logistic fit, pH 7.4, 37 °C, read-out: ΔY% (efficacy, YM − Y0).
[2] abbreviates: logistic fit, pH 7.4, 37 °C, read-out: ΔY% (efficacy, YM − Y0).

Like-named read-outs stand apart in the source and are kept apart here.

T1 sequence (P00747 581-810 limits assumed): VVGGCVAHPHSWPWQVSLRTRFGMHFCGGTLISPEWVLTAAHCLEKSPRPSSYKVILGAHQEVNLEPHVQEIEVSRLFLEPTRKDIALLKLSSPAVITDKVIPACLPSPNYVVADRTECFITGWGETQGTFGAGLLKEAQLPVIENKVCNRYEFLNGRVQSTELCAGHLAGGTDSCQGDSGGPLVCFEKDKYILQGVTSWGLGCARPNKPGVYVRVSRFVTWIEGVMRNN
T1 sequence (P00747 97-580 partner limits assumed): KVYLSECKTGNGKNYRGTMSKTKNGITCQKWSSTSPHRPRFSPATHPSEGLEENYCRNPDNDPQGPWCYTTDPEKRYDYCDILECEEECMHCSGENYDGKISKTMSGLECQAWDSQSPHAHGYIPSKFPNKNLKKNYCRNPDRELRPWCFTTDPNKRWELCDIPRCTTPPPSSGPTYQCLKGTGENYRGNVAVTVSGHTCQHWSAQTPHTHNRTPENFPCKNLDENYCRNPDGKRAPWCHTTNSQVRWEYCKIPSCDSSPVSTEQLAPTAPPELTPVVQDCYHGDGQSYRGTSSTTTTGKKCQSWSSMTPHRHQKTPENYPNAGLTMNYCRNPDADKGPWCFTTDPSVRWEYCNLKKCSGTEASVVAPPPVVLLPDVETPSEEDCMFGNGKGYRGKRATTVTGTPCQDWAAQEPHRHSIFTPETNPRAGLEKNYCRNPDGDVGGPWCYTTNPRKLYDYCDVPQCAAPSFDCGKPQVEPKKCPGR

Molecule `O=c1c2ccccc2nc(-c2ccc(OS(=O)(=O)O)cc2)n1Cc1cn(CCn2cc(Cn3c(-c4ccc(OS(=O)(=O)O)cc4)nc4ccccc4c3=O)nn2)nn1` [compound 41] registered an IC50 of 125 ± 9 µM. For the same molecule, under “logistic fit, pH 7.4, 37 °C”, the “HS (Hill slope)” value came out at 4.0 ± 1.8 and the “ΔY% (efficacy, YM − Y0)” value is 54 ± 5%. For the same molecule, the Emax under setting [1] is 54%.

`O=c1c2ccccc2nc(-c2ccc(OS(=O)(=O)O)cc2)n1CCCCCCCCCn1cc(Cn2c(-c3ccc(OS(=O)(=O)O)cc3)nc3ccccc3c2=O)nn1` [compound 44] registered an IC50 of 137 ± 11 µM. Besides, the “HS (Hill slope)” value (logistic fit, pH 7.4, 37 °C) worked out at 1.0 ± 0.2. Also, the Emax under setting [2] was determined as 102 ± 9%.

As for `O=c1c(OS(=O)(=O)O)c(-c2ccc(OS(=O)(=O)O)c(OS(=O)(=O)O)c2)oc2cc(OS(=O)(=O)O)cc(OCCCCCOc3cc(OS(=O)(=O)O)cc4oc(-c5ccc(OS(=O)(=O)O)c(OS(=O)(=O)O)c5)c(OS(=O)(=O)O)c(=O)c34)c12` [compound 53], the “loss in potency relative to 4-atom linker flavonoid homodimers (52, 54)” value stood at 3 fold and the IC50 turned out to be 209 ± 25 µM. Moreover, the inhibition at 400 µM (pH 7.4, 37 °C) was greater than 90%. Besides, the “HS (Hill slope)” value (logistic fit, pH 7.4, 37 °C) is given as 0.6 ± 0.1. Moreover, under setting [1], the Emax turned out to be 105 ± 8%.

`O=c1c(OS(=O)(=O)O)c(-c2ccc(OS(=O)(=O)O)c(OS(=O)(=O)O)c2)oc2cc(OS(=O)(=O)O)cc(OCc3cn(CCCCCCCCCn4c(-c5ccc(OS(=O)(=O)O)cc5)nc5ccccc5c4=O)nn3)c12` [compound 33]: 128 ± 8 µM corresponded to half-maximal inhibition (IC50). Further, the “diminished potency relative to 32” value (13-atom and 14-atom linkers vs 12-atom linker of 32) was ~ 3 fold. For the same molecule, the “HS (Hill slope)” value (logistic fit, pH 7.4, 37 °C) stood at 1.8 ± 0.4. Besides, the Emax (pH 7.4, read-out: ΔY% (efficacy, YM − Y0), logistic fit, pH 7.4, 37 °C) was 89 ± 7%.

As for `O=c1c2ccccc2nc(-c2ccc(OS(=O)(=O)O)cc2)n1CCCCCCCCCCn1cc(Cn2c(-c3ccc(OS(=O)(=O)O)cc3)nc3ccccc3c2=O)nn1` [compound 45], the IC50 worked out at 98 ± 9 µM. Besides, where the note is “logistic fit, pH 7.4, 37 °C”, the “HS (Hill slope)” value was determined as 1.7 ± 0.6. The Emax under setting [2] was determined as 94 ± 6%.

In turn, `O=c1c2ccccc2nc(-c2ccc(OS(=O)(=O)O)cc2)n1CCCCCCCCCCCCn1cc(Cn2c(-c3ccc(OS(=O)(=O)O)cc3)nc3ccccc3c2=O)nn1` [compound 47] came in with an IC50 of 89 ± 7 µM. Also, where the note is “logistic fit, pH 7.4, 37 °C”, the “HS (Hill slope)” value was found to be 1.9 ± 0.6. Moreover, under setting [2], the Emax was 98 ± 7%.

Consider `O=S(=O)(O)OC[C@H]1O[C@@](COS(=O)(=O)O)(O[C@H]2O[C@H](COS(=O)(=O)O)[C@@H](OS(=O)(=O)O)[C@H](OS(=O)(=O)O)[C@H]2OS(=O)(=O)O)[C@@H](OS(=O)(=O)O)[C@@H]1OS(=O)(=O)O` [compound 17, sucrose octasulfate, reference compound], for which, under “pH 7.4, 37 °C”, the inhibition at 400 µM was no more than 70%.

Regarding `O=c1c(OS(=O)(=O)O)c(-c2ccc(OS(=O)(=O)O)c(OS(=O)(=O)O)c2)oc2cc(OS(=O)(=O)O)cc(OCCOc3cc(OS(=O)(=O)O)cc4oc(-c5ccc(OS(=O)(=O)O)c(OS(=O)(=O)O)c5)c(OS(=O)(=O)O)c(=O)c34)c12` [compound 50], the “loss in potency relative to 4-atom linker flavonoid homodimers (52, 54)” value is recorded as 2 fold and the IC50 amounted to 185 ± 68 µM. Also, where the note is “pH 7.4, 37 °C”, the inhibition at 400 µM is greater than 90%. Further, where the note is “logistic fit, pH 7.4, 37 °C”, the “HS (Hill slope)” value was found to be 1.4 ± 0.2 and the “ΔY% (efficacy, YM − Y0)” value came out at 38 ± 15%. In addition, under setting [1], the Emax amounted to 38%.

Regarding `O=c1c2ccccc2nc(-c2ccc(OS(=O)(=O)O)cc2)n1CCCCCCCCCCCn1cc(Cn2c(-c3ccc(OS(=O)(=O)O)cc3)nc3ccccc3c2=O)nn1` [compound 46], the IC50 is 111 ± 7 µM. In addition, for the setting “logistic fit, pH 7.4, 37 °C”, the “HS (Hill slope)” value is reported as 2.4 ± 0.4. Also, the Emax under setting [2] is 95 ± 2%.

`O=c1c2ccccc2nc(-c2ccc(OS(=O)(=O)O)cc2)n1CCCCCCCCn1cc(Cn2c(-c3ccc(OS(=O)(=O)O)cc3)nc3ccccc3c2=O)nn1` [compound 43] gave an IC50 of 183 ± 43 µM. The “HS (Hill slope)” value (logistic fit, pH 7.4, 37 °C) is reported as 1.0 ± 0.3. Moreover, under setting [2], the Emax was determined as 94 ± 21%. Moreover, the “decrease in inhibition potency relative to 31 and 32, respectively” value (tetrasulfated flavonoid replaced by para-sulfated quinazolinone) is on record as 3–4 fold.

Usually IC50 stands for the concentration needed to halve the response being measured. As a reminder, the inhibition is the share of the control response that was lost under treatment.
